# Assay results from ChEMBL document CHEMBL1201862, “PubChem BioAssay data set” (2004).
#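 Cultured in 96-well plates, cells were exposed to test compound for 48 hours across five concentrations. GI50 is the concentration that inhibits growth by half.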 Activity calls are given as the source filed them. Rule as the data show it: active = GI50 up to about 1.1 µM and inactive = higher.
# Key:
# Experiment in all cases: growth of human tumour cells (NCI), 48 h
# PC-3 = system: PC-3
# LOX IMVI = system: LOX IMVI
# IGROV-1 = system: IGROV-1
# A549 = system: A549
# NCI-H460 = system: NCI-H460
# NCI-H23 = system: NCI-H23
# MCF7 = system: MCF7
# HT-29 = system: HT-29
# EKVX = system: EKVX
# SF-539 = system: SF-539
# COLO 205 = system: COLO 205
# Hs-578T = system: Hs-578T
# SNB-19 = system: SNB-19
# SK-MEL-28 = system: SK-MEL-28
# SK-MEL-5 = system: SK-MEL-5
# HOP-62 = system: HOP-62
# Malme-3M = system: Malme-3M
# SR = system: SR
# OVCAR-3 = system: OVCAR-3
# M14 = system: M14
# UACC-257 = system: UACC-257
# SK-MEL-2 = system: SK-MEL-2
# KM12 = system: KM12
# HOP-92 = system: HOP-92
# OVCAR-4 = system: OVCAR-4
# ACHN = system: ACHN
# MOLT-4 = system: MOLT-4
# BT-549 = system: BT-549
# UO-31 = system: UO-31
# NCI-H522 = system: NCI-H522
# U-251 = system: U-251
# TK-10 = system: TK-10
# T47D = system: T47D
# CAKI-1 = system: CAKI-1
# NCI-H226 = system: NCI-H226
# CCRF-CEM = system: CCRF-CEM
# SW-620 = system: SW-620
# 786-0 = system: 786-0
# MDA-MB-435 = system: MDA-MB-435
# SK-OV-3 = system: SK-OV-3
# UACC-62 = system: UACC-62
# MDA-N = system: MDA-N
# HCC 2998 = system: HCC 2998
# HCT-116 = system: HCT-116
# SF-295 = system: SF-295
# RXF 393 = system: RXF 393
# A498 = system: A498
# RPMI-8226 = system: RPMI-8226
# MDA-MB-231 = system: MDA-MB-231
# SF-268 = system: SF-268
# OVCAR-5 = system: OVCAR-5
# OVCAR-8 = system: OVCAR-8
# DU-145 = system: DU-145
# HCT-15 = system: HCT-15
# SNB-75 = system: SNB-75
# HL-60 = system: HL-60
# SN12C = system: SN12C
# NCI/ADR-RES = system: NCI/ADR-RES
# K562 = system: K562
smiles,measurement,setting,value
C[C@@]1(CCCCCCCCCCc2ccccc2)C[C@@]2(C)OC(=O)C[C@H]2OO1,GI50,PC-3,1.77 µM (inactive)
same,GI50,LOX IMVI,2.05 µM (inactive)
same,GI50,IGROV-1,1.75 µM (inactive)
same,GI50,A549,2.76 µM (inactive)
same,GI50,NCI-H460,1.96 µM (inactive)
same,GI50,NCI-H23,1.55 µM (inactive)
same,GI50,MCF7,1.56 µM (inactive)
same,GI50,HT-29,1.46 µM (inactive)
same,GI50,EKVX,2.52 µM (inactive)
same,GI50,SF-539,1.57 µM (inactive)
same,GI50,COLO 205,1.7 µM (inactive)
same,GI50,Hs-578T,2.47 µM (inactive)
same,GI50,SNB-19,2.26 µM (inactive)
same,GI50,SK-MEL-28,2.07 µM (inactive)
same,GI50,SK-MEL-5,1.44 µM (inactive)
same,GI50,HOP-62,1.57 µM (inactive)
same,GI50,Malme-3M,1.54 µM (inactive)
same,GI50,SR,1.88 µM (inactive)
same,GI50,OVCAR-3,1.79 µM (inactive)
same,GI50,M14,1.51 µM (inactive)
same,GI50,UACC-257,2.12 µM (inactive)
same,GI50,SK-MEL-2,20.9 µM (inactive)
same,GI50,KM12,1.81 µM (inactive)
same,GI50,HOP-92,0.769 µM (active)
same,GI50,OVCAR-4,2.17 µM (inactive)
same,GI50,ACHN,2.2 µM (inactive)
same,GI50,MOLT-4,1.69 µM (inactive)
same,GI50,BT-549,0.479 µM (active)
same,GI50,UO-31,1.89 µM (inactive)
same,GI50,NCI-H522,1.72 µM (inactive)
same,GI50,U-251,1.55 µM (inactive)
same,GI50,TK-10,2.83 µM (inactive)
same,GI50,T47D,2.49 µM (inactive)
same,GI50,CAKI-1,30.3 µM (inactive)
same,GI50,NCI-H226,3.1 µM (inactive)
same,GI50,CCRF-CEM,1.55 µM (inactive)
same,GI50,SW-620,1.68 µM (inactive)
same,GI50,786-0,1.51 µM (inactive)
same,GI50,MDA-MB-435,1.81 µM (inactive)
same,GI50,SK-OV-3,2.48 µM (inactive)
same,GI50,UACC-62,1.8 µM (inactive)
same,GI50,MDA-N,1.99 µM (inactive)
same,GI50,HCC 2998,1.66 µM (inactive)
same,GI50,HCT-116,1.45 µM (inactive)
same,GI50,SF-295,1.82 µM (inactive)
same,GI50,RXF 393,1.93 µM (inactive)
same,GI50,A498,19.7 µM (inactive)
same,GI50,RPMI-8226,1.85 µM (inactive)
same,GI50,MDA-MB-231,1.67 µM (inactive)
same,GI50,SF-268,1.8 µM (inactive)
same,GI50,OVCAR-5,1.76 µM (inactive)
same,GI50,OVCAR-8,1.43 µM (inactive)
same,GI50,DU-145,2.77 µM (inactive)
same,GI50,HCT-15,1.73 µM
same,GI50,SNB-75,2.81 µM (inactive)
same,GI50,HL-60,0.399 µM (active)
same,GI50,SN12C,1.81 µM (inactive)
same,GI50,NCI/ADR-RES,1.68 µM (inactive)
same,GI50,K562,1.68 µM (inactive)
Cc1cc(C)nc(NS(=O)(=O)c2ccc(Nc3c4ccccc4nc4ccc(C(=O)Nc5ccc(S(N)(=O)=O)cc5)cc34)cc2)n1,GI50,PC-3,> 100 µM (inactive)
same,GI50,LOX IMVI,50.6 µM (inactive)
same,GI50,IGROV-1,> 100 µM (inactive)
same,GI50,A549,> 100 µM (inactive)
same,GI50,NCI-H460,> 100 µM (inactive)
same,GI50,NCI-H23,> 100 µM (inactive)
same,GI50,MCF7,> 100 µM (inactive)
same,GI50,HT-29,> 100 µM (inactive)
same,GI50,EKVX,> 100 µM (inactive)
same,GI50,SF-539,> 100 µM (inactive)
same,GI50,COLO 205,> 100 µM (inactive)
same,GI50,Hs-578T,> 100 µM (inactive)
same,GI50,SNB-19,> 100 µM (inactive)
same,GI50,SK-MEL-28,> 100 µM (inactive)
same,GI50,SK-MEL-5,72.6 µM (inactive)
same,GI50,HOP-62,> 100 µM (inactive)
same,GI50,Malme-3M,> 100 µM (inactive)
same,GI50,SR,> 100 µM (inactive)
same,GI50,OVCAR-3,> 100 µM (inactive)
same,GI50,M14,> 100 µM (inactive)
same,GI50,UACC-257,> 100 µM (inactive)
same,GI50,SK-MEL-2,> 100 µM (inactive)
same,GI50,KM12,> 100 µM (inactive)
same,GI50,HOP-92,> 100 µM (inactive)
same,GI50,OVCAR-4,> 100 µM (inactive)
same,GI50,ACHN,> 100 µM (inactive)
same,GI50,MOLT-4,> 100 µM (inactive)
same,GI50,BT-549,24.9 µM (inactive)
same,GI50,UO-31,> 100 µM (inactive)
same,GI50,NCI-H522,> 100 µM (inactive)
same,GI50,U-251,66.4 µM (inactive)
same,GI50,TK-10,> 100 µM (inactive)
same,GI50,T47D,78 µM (inactive)
same,GI50,CAKI-1,> 100 µM (inactive)
same,GI50,NCI-H226,> 100 µM (inactive)
same,GI50,CCRF-CEM,63.7 µM (inactive)
same,GI50,SW-620,> 100 µM (inactive)
same,GI50,786-0,> 100 µM (inactive)
same,GI50,MDA-MB-435,> 100 µM (inactive)
same,GI50,SK-OV-3,> 100 µM (inactive)
same,GI50,UACC-62,> 100 µM (inactive)
same,GI50,MDA-N,> 100 µM (inactive)
same,GI50,HCC 2998,> 100 µM (inactive)
same,GI50,HCT-116,> 100 µM (inactive)
same,GI50,SF-295,> 100 µM (inactive)
same,GI50,RXF 393,> 100 µM (inactive)
same,GI50,A498,> 100 µM (inactive)
same,GI50,RPMI-8226,77.4 µM (inactive)
same,GI50,MDA-MB-231,20 µM (inactive)
same,GI50,SF-268,> 100 µM (inactive)
same,GI50,OVCAR-5,> 100 µM (inactive)
same,GI50,OVCAR-8,43 µM (inactive)
same,GI50,DU-145,> 100 µM (inactive)
same,GI50,HCT-15,> 100 µM
same,GI50,SNB-75,> 100 µM (inactive)
same,GI50,HL-60,> 100 µM (inactive)
same,GI50,SN12C,> 100 µM (inactive)
same,GI50,NCI/ADR-RES,69.3 µM (inactive)
same,GI50,K562,66.4 µM (inactive)
